Results on 22 compounds are retold here after patent US20260062387A1, “SALT-INDUCIBLE KINASE INHIBITOR COMPOUND AND PHARMACEUTICAL COMPOSITION INCLUDING THE SAME” (MITSUBISHI TANABE PHARMA CORPORATION, priority 2023, published 2026).

SMILES strings stand for the structures.

Holding throughout (assay type): biochemical
One assay addresses GST-tagged SIK2 (Homo sapiens (Human), UniProt Q9H0K1). Briefly: SIK2 inhibition test (ADP-Glo Max Assay). To be noted: enzyme 3 nM, AMARA Peptide 200 μM, ATP 1 mM, 2 hours room temperature. The procedure:
(§1) The compounds described in Examples above were used in the SIK1, SIK2, and SIK3 inhibition test.
(§2) The inhibitory activity of the compound for SIK1, SIK2, and SIK3 enzymes was assayed by measuring the amount of ADP, an enzyme reaction product, with ADP-Glo™ Max Assay (Promega). Enzymes, specifically, GST-tagged SIK1 (Carna Biosciences, Inc.), GST-tagged SIK2 (Carna Biosciences, Inc.), and GST-tagged SIK3 (SignalChem) were prepared in a reaction buffer (15 mM tris-hydrochloric acid buffer (pH 7.5), 0.001% Triton X-100, 0.01% BSA) so that the final concentration would be 20 nM, 3 nM, and 100 nM. Enzyme solutions were thus formed. In a reaction buffer, AMARA Peptide (SignalChem) as a substrate with a final concentration of 200 μM (SIK1, SIK2) or 100 μM (SIK3), ATP (Promega) with a final concentration of 1 mM, and magnesium chloride with a final concentration of 5 mM were prepared. Substrate solutions were thus formed. The enzyme solution, the substrate solution, and a DMSO solution of a concentration of the test compound were mixed together and reacted at room temperature for 2 hours. After the reaction, ADP-Glo™ Reagent (Promega) was added, and the reaction was performed at room temperature for 30 minutes. Subsequently, ADP-Glo™ Max Detection Reagent (Promega) was added, and the reaction was performed at room temperature for 30 minutes. The emission by the luciferase reaction was measured with PHERAstar FSX (BMG LABTECH).
(§3) The inhibitory ratio (%) was calculated by: % Inhibition={1−(intensity of sample−intensity of blank (no enzyme solution added))/(intensity of control (DMSO alone)−intensity of blank)}×100. The inhibitory concentration IC50 was calculated based on 16 data values obtained in the concentration response test.
In general terms: ADP-Glo first removes unused ATP, then detects ADP through luciferase.

The target of a further assay is GST-tagged SIK1 (Homo sapiens (Human), UniProt P57059). Briefly: SIK1 inhibition test (ADP-Glo Max Assay). To be noted: enzyme 20 nM, AMARA Peptide 200 μM, ATP 1 mM, 2 hours room temperature. The method, then:
as §1, §2, §3

For the next assay, the target named is GST-tagged SIK3 (Homo sapiens (Human), UniProt Q9Y2K2). Nature of the assay: SIK3 inhibition test (ADP-Glo Max Assay). Conditions: enzyme 100 nM, AMARA Peptide 100 μM, ATP 1 mM, 2 hours room temperature. The method, then:
as §1, §2, §3

GST-tagged SIK1, sequence (P57059 whole entry): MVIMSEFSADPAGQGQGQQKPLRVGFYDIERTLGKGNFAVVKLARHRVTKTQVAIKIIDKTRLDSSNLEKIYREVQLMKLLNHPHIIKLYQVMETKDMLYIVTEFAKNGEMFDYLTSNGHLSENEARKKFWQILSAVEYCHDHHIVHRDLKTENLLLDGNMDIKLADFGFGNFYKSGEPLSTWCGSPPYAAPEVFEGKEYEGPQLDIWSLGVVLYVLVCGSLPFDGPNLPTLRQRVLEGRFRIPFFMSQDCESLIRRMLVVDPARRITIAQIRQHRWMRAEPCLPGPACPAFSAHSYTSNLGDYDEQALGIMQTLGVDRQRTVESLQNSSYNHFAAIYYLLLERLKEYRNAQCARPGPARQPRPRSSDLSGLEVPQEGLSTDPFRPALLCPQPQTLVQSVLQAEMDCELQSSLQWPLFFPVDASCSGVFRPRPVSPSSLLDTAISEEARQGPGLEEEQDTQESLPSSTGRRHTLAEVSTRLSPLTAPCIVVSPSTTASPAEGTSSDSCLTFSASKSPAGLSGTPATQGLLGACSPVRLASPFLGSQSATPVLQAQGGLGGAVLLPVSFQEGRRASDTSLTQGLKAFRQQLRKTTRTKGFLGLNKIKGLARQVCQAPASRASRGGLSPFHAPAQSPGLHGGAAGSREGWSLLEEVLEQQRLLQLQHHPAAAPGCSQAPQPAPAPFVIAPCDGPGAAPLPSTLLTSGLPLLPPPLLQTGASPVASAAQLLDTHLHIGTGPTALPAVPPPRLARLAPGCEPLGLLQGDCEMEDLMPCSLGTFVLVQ
GST-tagged SIK2, sequence (Q9H0K1 whole entry): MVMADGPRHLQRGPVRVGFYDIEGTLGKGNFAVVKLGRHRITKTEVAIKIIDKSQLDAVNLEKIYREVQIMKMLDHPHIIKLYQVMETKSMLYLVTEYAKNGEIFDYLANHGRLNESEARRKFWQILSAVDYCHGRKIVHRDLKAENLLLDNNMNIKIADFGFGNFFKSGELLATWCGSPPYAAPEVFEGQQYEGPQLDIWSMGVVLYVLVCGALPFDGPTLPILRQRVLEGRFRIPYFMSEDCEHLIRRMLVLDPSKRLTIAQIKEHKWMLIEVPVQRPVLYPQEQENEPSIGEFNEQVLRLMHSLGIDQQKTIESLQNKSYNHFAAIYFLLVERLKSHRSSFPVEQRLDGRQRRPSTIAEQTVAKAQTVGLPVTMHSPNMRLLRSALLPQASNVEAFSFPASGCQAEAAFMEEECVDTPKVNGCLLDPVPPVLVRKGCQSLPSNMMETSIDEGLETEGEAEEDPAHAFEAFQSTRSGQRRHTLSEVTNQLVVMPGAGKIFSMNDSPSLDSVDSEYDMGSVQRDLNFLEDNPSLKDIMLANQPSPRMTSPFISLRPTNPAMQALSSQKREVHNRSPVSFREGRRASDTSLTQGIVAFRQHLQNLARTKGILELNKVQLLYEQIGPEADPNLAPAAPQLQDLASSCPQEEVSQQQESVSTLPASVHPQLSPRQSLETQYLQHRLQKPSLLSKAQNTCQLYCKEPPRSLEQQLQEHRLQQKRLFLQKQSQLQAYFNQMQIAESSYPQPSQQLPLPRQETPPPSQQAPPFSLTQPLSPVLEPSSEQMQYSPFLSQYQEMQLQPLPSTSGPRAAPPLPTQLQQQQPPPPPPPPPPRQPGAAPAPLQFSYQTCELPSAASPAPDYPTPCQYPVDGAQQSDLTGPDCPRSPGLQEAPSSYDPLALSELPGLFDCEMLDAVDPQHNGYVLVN
GST-tagged SIK3, sequence (Q9Y2K2 whole entry): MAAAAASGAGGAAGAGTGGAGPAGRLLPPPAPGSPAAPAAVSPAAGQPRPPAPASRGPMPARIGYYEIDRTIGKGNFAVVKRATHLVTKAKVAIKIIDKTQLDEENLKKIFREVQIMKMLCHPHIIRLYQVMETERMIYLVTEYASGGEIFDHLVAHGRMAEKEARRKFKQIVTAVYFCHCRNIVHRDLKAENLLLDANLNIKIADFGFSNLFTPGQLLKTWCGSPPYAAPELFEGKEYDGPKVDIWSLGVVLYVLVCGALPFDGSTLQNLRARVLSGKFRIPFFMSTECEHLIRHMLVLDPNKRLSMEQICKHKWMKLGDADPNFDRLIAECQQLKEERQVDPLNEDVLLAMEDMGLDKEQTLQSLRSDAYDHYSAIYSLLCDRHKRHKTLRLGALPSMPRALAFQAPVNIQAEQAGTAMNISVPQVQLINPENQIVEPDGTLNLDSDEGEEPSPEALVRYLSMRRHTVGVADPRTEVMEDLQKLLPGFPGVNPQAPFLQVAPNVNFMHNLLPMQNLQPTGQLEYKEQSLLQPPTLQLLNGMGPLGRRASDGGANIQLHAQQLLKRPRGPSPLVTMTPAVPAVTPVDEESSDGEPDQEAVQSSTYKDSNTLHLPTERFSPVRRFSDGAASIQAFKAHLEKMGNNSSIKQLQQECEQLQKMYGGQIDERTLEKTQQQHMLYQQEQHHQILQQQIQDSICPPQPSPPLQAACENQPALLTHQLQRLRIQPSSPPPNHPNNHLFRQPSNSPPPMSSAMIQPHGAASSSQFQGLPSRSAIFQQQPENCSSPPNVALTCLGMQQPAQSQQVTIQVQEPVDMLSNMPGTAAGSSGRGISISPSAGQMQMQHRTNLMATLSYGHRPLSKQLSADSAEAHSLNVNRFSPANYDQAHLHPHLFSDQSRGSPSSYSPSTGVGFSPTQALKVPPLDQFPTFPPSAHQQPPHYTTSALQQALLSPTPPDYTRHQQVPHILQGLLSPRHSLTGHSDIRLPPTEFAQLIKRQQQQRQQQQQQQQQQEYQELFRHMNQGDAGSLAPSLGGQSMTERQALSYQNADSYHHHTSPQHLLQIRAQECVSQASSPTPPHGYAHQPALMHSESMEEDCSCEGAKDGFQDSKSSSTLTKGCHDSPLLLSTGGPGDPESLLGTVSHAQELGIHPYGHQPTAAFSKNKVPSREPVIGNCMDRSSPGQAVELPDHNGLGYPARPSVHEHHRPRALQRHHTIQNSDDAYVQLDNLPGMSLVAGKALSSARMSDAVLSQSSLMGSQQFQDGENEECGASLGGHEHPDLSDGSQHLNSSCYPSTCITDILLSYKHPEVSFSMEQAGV

Turning to `COc1cc(-c2c3c(C#N)cc(-c4cnn(CC(F)F)c4)cc3nn2C)cc2c1C(=O)NC[C@@H]2C` (single isomer, unassigned) [Example 107], the values for the IC50 against GST-tagged SIK2, against GST-tagged SIK1 and against GST-tagged SIK3 were 4 nM, 8.3 nM and 8 nM, respectively.

Turning to `COc1cc(-c2c3c(OC)cc(-c4cnn(C)c4)cc3nn2C)cc(OC(F)F)c1C(N)=O` [Example 130, 2-(difluoromethoxy)-6-methoxy-4-[4-methoxy-2-methyl-6-(1-methylpyrazol-4-yl)indazol-3-yl]benzamide], the values for the IC50 against GST-tagged SIK2, on GST-tagged SIK1 and against GST-tagged SIK3 were 2.1 nM, 16.9 nM and 16.8 nM, respectively.

As to `COc1cc(-c2c3c(OCc4ccccc4)cc(-c4cnn(C)c4)cc3nn2C)cc(OC(F)F)c1C(=O)N[C@@H]1C[C@@H]1F` [Example 6, 2-(difluoromethoxy)-N-[(1R,2S)-2-fluorocyclopropyl]-6-methoxy-4-[2-methyl-6-(1-methylpyrazol-4-yl)-4-phenylmethoxyindazol-3-yl]benzamide], the IC50 against GST-tagged SIK2 came out at 7.1 nM; on GST-tagged SIK1, 2.8 nM; on GST-tagged SIK3 it was 8.4 nM.

Consider `COc1cc(-c2c3c(C#N)cc(-c4cnn(CC(C)C)c4)cc3nn2C)cc2c1C(=O)NC[C@@H]2C` (single isomer, unassigned) [Example 169], for which the IC50 against GST-tagged SIK2 was determined as 1.9 nM; against GST-tagged SIK1, 8.1 nM; at GST-tagged SIK3, 3.4 nM.

Consider `COc1cc(-c2c3c(C#N)cc(-c4cnn(C)c4)cc3nn2C)cc(OC(F)F)c1C(=O)N1CC(C)(C(F)F)C1` [Example 8, 3-[3-(difluoromethoxy)-4-[3-(difluoromethyl)-3-methylazetidin-1-carbonyl]-5-methoxyphenyl]-2-methyl-6-(1-methylpyrazol-4-yl)indazole-4-carbonitrile], for which the half-maximal inhibitory concentration (IC50) on GST-tagged SIK2 was 9.7 nM; at GST-tagged SIK1 it was 7.2 nM; against GST-tagged SIK3, 5.8 nM.

`COc1cc(-c2c3c(C#N)cc(-c4cc[nH]n4)cc3nn2C)cc(OC(F)F)c1C(=O)N[C@@H]1CC1(F)F` [Example 149, 4-[4-cyano-2-methyl-6-(1H-pyrazol-3-yl)indazol-3-yl]-N-[(1R)-2,2-difluorocyclopropyl]-2-(difluoromethoxy)-6-methoxybenzamide]: the IC50 at GST-tagged SIK2 is 1.3 nM; against GST-tagged SIK1, 10.4 nM; on GST-tagged SIK3 it was 1.6 nM.

Regarding `COc1cc(-c2c3c(OCCCO)cc(-c4cnn(C)c4)cc3nn2C)cc(OC(F)F)c1C(=O)N[C@@H]1C[C@@H]1F` [Example 4, 2-(difluoromethoxy)-N-[(1R,2S)-2-fluorocyclopropyl]-4-[4-(3-hydroxypropoxy)-2-methyl-6-(1-methylpyrazol-4-yl)indazol-3-yl]-6-methoxybenzamide], the figures for the IC50 at GST-tagged SIK2, against GST-tagged SIK1 and against GST-tagged SIK3 were 8.9 nM, 5 nM and 11.5 nM, respectively.

As for `CC[C@H](O)Cn1cc(-c2cc(C#N)c3c(-c4cc(OC)c(C(=O)NCC5(F)CC5)c(OC(F)F)c4)n(C)nc3c2)cn1` [Example 93, 4-[4-cyano-6-[1-[(2S)-2-hydroxybutyl]pyrazol-4-yl]-2-methylindazol-3-yl]-2-(difluoromethoxy)-N-[(1-fluorocyclopropyl)methyl]-6-methoxybenzamide], the values for the half-inhibitory concentration (IC50) against GST-tagged SIK2, against GST-tagged SIK1 and on GST-tagged SIK3 were 13.5 nM, 19.8 nM and 5.9 nM, respectively.

With `COc1cc(-c2c3c(C(F)F)cc(-c4cnn([C@@H]5CCOC5)c4)cc3nn2C)cc(OC(F)F)c1C(N)=O` [Example 159, 2-(difluoromethoxy)-4-[4-(difluoromethyl)-2-methyl-6-[1-[(3R)-oxolan-3-yl]pyrazol-4-yl]indazol-3-yl]-6-methoxybenzamide], the IC50 on GST-tagged SIK2 was 2.8 nM; against GST-tagged SIK1 it was 13.8 nM; at GST-tagged SIK3, 4.6 nM.

In the case of `COc1cc(-c2cnn(C)c2)cc2nn(C)c(-c3cc(OC(F)F)c4c(c3)[C@@H](C)CNC4=O)c12` (single isomer, unassigned) [Example 165], the 50% inhibitory concentration (IC50) at GST-tagged SIK2 stood at 1.5 nM; against GST-tagged SIK1, 5.2 nM; on GST-tagged SIK3, 6.8 nM.

In the case of `COc1cc(-c2c3c(C#N)cc(-c4cnn(C[C@@H](C)O)c4)cc3nn2C)cc(OC(F)F)c1C(=O)NCC1(F)CC1` [Example 57, 4-[4-cyano-6-[1-[(2R)-2-hydroxypropyl]pyrazol-4-yl]-2-methylindazol-3-yl]-2-(difluoromethoxy)-N-[(1-fluorocyclopropyl)methyl]-6-methoxybenzamide], the values for the half-inhibitory concentration (IC50) on GST-tagged SIK2, at GST-tagged SIK1 and against GST-tagged SIK3 were 10 nM, 16 nM and 9.2 nM, respectively.

Take `COc1cc(-c2c3c(C#N)cc(-c4cnn(CC5CCO5)c4)cc3nn2C)cc(OC(F)F)c1C(=O)NCC1(F)CC1` (stereo not drawn) [Example 80, 4-[4-cyano-2-methyl-6-[1-(oxetan-2-ylmethyl)pyrazol-4-yl]indazol-3-yl]-2-(difluoromethoxy)-N-[(1-fluorocyclopropyl)methyl]-6-methoxybenzamide]: the figures for the IC50 against GST-tagged SIK2, against GST-tagged SIK1 and against GST-tagged SIK3 were 8.7 nM, 16.5 nM and 10.1 nM, respectively.

In the case of `COc1cc(-c2c3c(C#N)cc(-c4cnn(C)c4)cc3nn2C)cc(OC(F)F)c1C(=O)N[C@@H]1CC1(F)F` [Example 23, 4-[4-cyano-2-methyl-6-(1-methylpyrazol-4-yl)indazol-3-yl]-N-[(1R)-2,2-difluorocyclopropyl]-2-(difluoromethoxy)-6-methoxybenzamide], the IC50 came out at 2.5 nM at GST-tagged SIK2, 2.1 nM against GST-tagged SIK1 and 5 nM against GST-tagged SIK3.

Consider `CCOc1cc(-c2cnn(C)c2)cc2nn(C)c(-c3cc(OC)c(C(N)=O)c(OC(F)F)c3)c12` [Example 136, 2-(difluoromethoxy)-4-[4-ethoxy-2-methyl-6-(1-methylpyrazol-4-yl)indazol-3-yl]-6-methoxybenzamide], for which the IC50 against GST-tagged SIK2 worked out at 3.4 nM; on GST-tagged SIK1 it was 7.6 nM; against GST-tagged SIK3 it was 13.4 nM.

`COc1cc(-c2c3c(C#N)cc(-c4cnn(CC(C)(C)O)c4)cc3nn2C)cc(OC(F)F)c1C(=O)NCC1(F)CC1` [Example 56]: the half-maximal inhibitory concentration (IC50) on GST-tagged SIK2 was 16.1 nM; against GST-tagged SIK1, 20 nM; against GST-tagged SIK3, 11.8 nM.

With `COc1cc(-c2c3c(OC(C)C)cc(-c4cnn(C)c4)cc3nn2C)cc(OC(F)F)c1C(=O)N1CC(O)(C(F)(F)F)C1` [Example 43, [2-(difluoromethoxy)-6-methoxy-4-[2-methyl-6-(1-methylpyrazol-4-yl)-4-propan-2-yloxyindazol-3-yl]phenyl]-[3-hydroxy-3-(trifluoromethyl)azetidin-1-yl]methanone], the values for the IC50 on GST-tagged SIK2, against GST-tagged SIK1 and against GST-tagged SIK3 were 19.7 nM, 2.4 nM and 20 nM, respectively.

`COc1cc(-c2c3c(C#N)cc(-c4cnn(C[C@H](C)O)c4)cc3nn2C)cc(OC(F)F)c1C(=O)N[C@@H]1CC1(F)F` [Example 94, 4-[4-cyano-6-[1-[(2S)-2-hydroxypropyl]pyrazol-4-yl]-2-methylindazol-3-yl]-N-[(1R)-2,2-difluorocyclopropyl]-2-(difluoromethoxy)-6-methoxybenzamide]: the IC50 amounted to 5 nM on GST-tagged SIK2, 6.7 nM at GST-tagged SIK1 and 2.3 nM against GST-tagged SIK3.

In the case of `COc1cc(-c2c3c(C(F)F)cc(-c4cnn(C)c4)cc3nn2C)cc(OC(F)F)c1C(=O)N[C@@H]1C[C@@H]1F` [Example 3, 2-(difluoromethoxy)-4-[4-(difluoromethyl)-2-methyl-6-(1-methylpyrazol-4-yl)indazol-3-yl]-N-[(1R,2S)-2-fluorocyclopropyl]-6-methoxybenzamide], the figures for the IC50 on GST-tagged SIK2, at GST-tagged SIK1 and on GST-tagged SIK3 were 4.5 nM, 7.6 nM and 2.3 nM, respectively.

For `COc1cc(-c2c3c(C(F)F)cc(-c4cnn(CCC(C)(C)O)c4)cc3nn2C)cc(OC(F)F)c1C(=O)N[C@@H]1CC1(F)F` [Example 119], the half-maximal inhibitory concentration (IC50) against GST-tagged SIK2 stood at 2.6 nM; against GST-tagged SIK1, 3.9 nM; on GST-tagged SIK3, 0.7 nM.

Consider `CCn1cc(-c2cc(C#N)c3c(-c4cc(OC)c5c(c4)[C@@H](C)CNC5=O)n(C)nc3c2)cn1` (single isomer, unassigned) [Example 105], for which the IC50 came out at 3.4 nM on GST-tagged SIK2, 10 nM against GST-tagged SIK1 and 8.1 nM at GST-tagged SIK3.

Regarding `CCn1cc(-c2cc(OC)c3c(-c4cc(OC(F)F)c5c(c4)[C@@H](C)CNC5=O)n(C)nc3c2)cn1` (single isomer, unassigned) [Example 179], the IC50 against GST-tagged SIK2 was determined as 2 nM; on GST-tagged SIK1, 5.7 nM; against GST-tagged SIK3, 6.1 nM.

Turning to `COc1cc(-c2cnn(C[C@H](C)O)c2)cc2nn(C)c(-c3cc(OC(F)F)c4c(c3)[C@@H](C)CNC4=O)c12` (single isomer, unassigned) [Example 175], the IC50 was found to be 2.9 nM against GST-tagged SIK2, 7.5 nM on GST-tagged SIK1 and 7.2 nM on GST-tagged SIK3.

By IC50 is commonly meant the concentration needed to halve the response being measured. Low values mean higher potency, high ones lower potency.
